Source: patent publication US5561135A, “N,N,N',N'-tetrasubstituted-1,2-ethanediamine derivative compounds” (Ferrer Internacional, S.A., priority 1993, dated 1996)
Where a name gives a salt, the structure may show the parent alone.

Tests used:
σ receptors [1] = conditions: B. L. Largent et al, Eur. J. Pharmacol., 155, 345-7, 1988; cited from earlier work
Male Sprague-Dawley rats = experiment: Stereotypy inhibition test (apomorphine, rats); format: in vivo; conditions: Rattus norvegicus, ip; intraperitoneal; apomorphine 1.5 mg/kg subcutaneously after 30 min; scored 40-120 min
Description: Stereotypy inhibition test: Male Sprague-Dawley rats, weighing 200-300 g were used. The animals were weighed and then placed in individual transparent boxes. At time 0 the compounds to be tested were administered intraperitoneally. 0.25% agar was used as vehicle. […] At 40, 50, 60, 90 and 120 min, stereotypy was scored from (-) to (+++) according to the following criteria: (-) absence of stereotypy or any abnormal movement; (+) presence of slight stereotyped movements of the head and intermittent sniffing; (++) intense movements of the head, mild licking interspersed with sniffing; and (+++) intense licking and/or gnawing. Results are expressed as ED50 in mg/kg for a better quantification.

[2] = Irwin test (behavioural and neurological undesirable effects); conditions: observed at first dose causing undesirable effects
[3] = in vivo
D2 receptors = D2 receptors (Rattus norvegicus, UniProt P61169); experiment: Specific binding to D2 receptors, [^3 H]spiperone displacement
σ receptors [4] = target: T1, σ receptors (Cavia porcellus, UniProt Q60492); experiment: Specific binding to σ receptors, (+)[^3 H]3-PPP displacement; set-up: species or system guinea-pig; conditions: for IC50: guinea-pig total brain membrane, 2 nM (+)[^3 H]3-PPP, 90 min, 25° C., pH 8.5
T1 construct: membrane corresponding to 40 mg of guinea-pig total brain; from tissue; host or cells: guinea-pig total brain membranes
Description: (§1) Thus, total binding of ligand to membranes was attained. Non-specific binding was then determined by adding a micromolar concentration of unlabelled 3-PPP.

σ receptors [5] = experiment: as above; set-up: species or system guinea-pig
Description: as §1

D2 receptors, sequence (P61169 whole entry): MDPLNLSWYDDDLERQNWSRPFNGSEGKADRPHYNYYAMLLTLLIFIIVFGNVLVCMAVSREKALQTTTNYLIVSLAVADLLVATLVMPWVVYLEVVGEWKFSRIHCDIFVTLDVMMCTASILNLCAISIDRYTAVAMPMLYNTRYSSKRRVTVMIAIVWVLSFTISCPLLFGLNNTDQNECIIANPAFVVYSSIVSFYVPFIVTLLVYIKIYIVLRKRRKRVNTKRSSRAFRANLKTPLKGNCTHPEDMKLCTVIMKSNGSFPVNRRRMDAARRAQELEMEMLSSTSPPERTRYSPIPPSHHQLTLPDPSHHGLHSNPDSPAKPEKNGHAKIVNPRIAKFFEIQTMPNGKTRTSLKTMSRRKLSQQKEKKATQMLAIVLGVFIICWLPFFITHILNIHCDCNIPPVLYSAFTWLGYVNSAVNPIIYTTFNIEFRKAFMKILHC
T1 sequence (Q60492 whole entry): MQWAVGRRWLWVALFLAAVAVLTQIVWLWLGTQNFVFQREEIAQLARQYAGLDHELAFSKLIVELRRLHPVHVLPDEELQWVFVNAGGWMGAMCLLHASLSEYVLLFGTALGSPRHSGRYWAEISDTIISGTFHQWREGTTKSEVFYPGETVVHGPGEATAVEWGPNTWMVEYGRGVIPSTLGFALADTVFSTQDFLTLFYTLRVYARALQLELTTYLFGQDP

Row | SMILES | IC50 (D2 receptors) [nM] | IC50 (σ receptors [4]) [nM] | further results
1 | O=C(CCCN1CCC(O)(c2ccc(Cl)cc2)CC1)c1ccc(F)cc1 [Haloperidol] | – | – | Receptor action (literature, in words) (σ receptors [1]): acts on both σ and D2 receptors; ED50 (Male Sprague-Dawley rats): 0.4 mg/kg; Side effects [2]: Hypothermia, Catalepsy.; First dose causing behavioural and neurological undesirable effects [3]: 10 mg/kg
2 | CN(CCCC(c1ccc(F)cc1)c1ccc(F)cc1)CCN(C)Cc1ccc(F)cc1 [Example 9, N-(4,4-bis(p-fluorophnyl)butyl)-N,N'-dimethyl-N'-(p-fluorobenzyl)-1,2-ethanediamine dihydrochloride] | 2350 | 83 | –
3 | CN(CCCC(=O)c1ccc(F)cc1)CCN(C)Cc1ccc(F)cc1 [Example 7, 1-(p-fluorophenyl)-4-[N-(2-(N'-(p-fluorobenzyl)-N'-methylamino)ethyl)-N-methylamino]-1-butanone dihydrochloride] | 678 | 0.52 | Activity on D2 receptors (in words) (D2 receptors): poorly active on D2 receptors; Binding to σ receptors (in words) (σ receptors [4]): more potent than Haloperidol
4 | CN(CCCC(=O)c1ccc(F)cc1)CCN(C)c1ncccn1 [Example 12, 1-(p-fluorophenyl)-4-[N-[2-(N'-(2-pyrimidinyl)-N'-methyl-amino)ethyl]-N-methylamino]-1-butanone disulphate] | 1500 | 14.6 | Relative selectivity (σ receptors [5]; D2 /σ ratio relative to Haloperidol): 21.5; Selectivity D2 /σ (σ receptors [5]; ratio of IC50 D2 (rat striatum) to IC50 σ (guinea-pig brain)): 103
5 | CN(CCCC(O)c1ccc(F)cc1)CCN(C)Cc1ccc(F)cc1 (centres unmarked) [Example 8, 1-(p-fluorophenyl)-4-[N-(2-(N'-(p-fluorobenzyl)-N'-methylamino)ethyl)-N-methanlamino]-1-butanol dihydrochloride] | 7810 | 2.79 | –
6 | CN(CCCC(O)c1ccc(F)cc1)CCN(C)Cc1ccccc1 (centres unmarked) [Example 6, 4-[N-(2-(N'-benzyl, N'-methylamino)ethyl) -N-methylamino]-1-(p-fluorophenyl)-1-butanol dihydrochloride] | 81800 | 29 | –
7 | CN(CCCC(=O)c1ccc(F)cc1)CCN(C)Cc1ccccc1 [Example 5, 4-[N-(2-(N'-benzyl,N'-methylamino)ethyl)-N-methylamino]-1-(p-fluorophenyl)-1-butanone dihydrochloride] | 410 | 2.01 | –
